For assay [1], the target named is human TYK2 (JH2domain-pseudokinase) (Homo sapiens (Human), UniProt P29597). Nature of the assay: TYK2 JH2 Domain Binding Assay (KINOMEscan). The method, boiled down: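 Kds, run in duplicate, came from Hill fits (slope fixed at −1) of an 11-point 3-fold dilution series starting at 30,000 nM. Bead-retained TYK2 JH2 (aa G556–D888)–NFkB DBD fusion, DNA-tagged and expressed in HEK293 cells, was read by qPCR after 1 h room-temperature binding in 0.9% DMSO.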

The next assay has as its target Tyk2 kinase domain (DH1) (Homo sapiens (Human), UniProt P29597). Kind of assay: Tyk2 Radioactive Kinase Assay. Type of assay: biochemical. To be noted: read-out: Tyk2 JH1% Inhibition @ 10 μM. The procedure, abridged: (§1)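 Read-out is percent inhibition from a radioactive kinase reaction, measured with compound at 10 μM.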
In another assay the target is JAK2 kinase domain (JH1) (Homo sapiens (Human), UniProt O60674). Nature of the assay: JAK2 Radioactive Kinase Assay. Type of assay: biochemical. To be noted: read-out: JAK2 JH1% Inhibition @ 10 μM. The procedure, abridged:
as §1

Assay [2] deals with Tyk2/JAK2 (heterodimeric complex) (Homo sapiens (Human), UniProt P29597). Nature of the assay: IL-12 Induced pSTAT4 in Human PBMC. Type of assay: cell-based. To be noted: 1.7 ng/mL IL-12. The source says:
The IL-12 Induced pSTAT4 assay evaluates the inhibition of IL-12 induced STAT4 phophorylation mediated by Tyk2/JAK2 (heterodimeric complex).

Assay [3] deals with JAK2/JAK2 homdimeric complex (Homo sapiens (Human), UniProt O60674). Kind of assay: GM-CSF Induced pSTAT5 in Human PBMC. To be noted: GM-CSF 5 ng/mL for 20 minutes, pSTAT5 by MSD, read-out: PBMC_GMCSF_pSTAT5 IC50. Type of assay: cell-based.

Where two headings read alike, the source gives them in different places.

JAK2 kinase domain (JH1), sequence (O60674 849-1124): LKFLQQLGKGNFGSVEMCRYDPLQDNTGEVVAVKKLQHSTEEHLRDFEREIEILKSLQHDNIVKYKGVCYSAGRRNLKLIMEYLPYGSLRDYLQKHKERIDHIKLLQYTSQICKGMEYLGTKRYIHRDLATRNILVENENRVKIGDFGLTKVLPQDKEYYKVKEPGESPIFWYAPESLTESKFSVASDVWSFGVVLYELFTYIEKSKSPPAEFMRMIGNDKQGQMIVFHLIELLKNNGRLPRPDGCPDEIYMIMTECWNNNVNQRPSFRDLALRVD
JAK2/JAK2 homdimeric complex, sequence (O60674 whole entry): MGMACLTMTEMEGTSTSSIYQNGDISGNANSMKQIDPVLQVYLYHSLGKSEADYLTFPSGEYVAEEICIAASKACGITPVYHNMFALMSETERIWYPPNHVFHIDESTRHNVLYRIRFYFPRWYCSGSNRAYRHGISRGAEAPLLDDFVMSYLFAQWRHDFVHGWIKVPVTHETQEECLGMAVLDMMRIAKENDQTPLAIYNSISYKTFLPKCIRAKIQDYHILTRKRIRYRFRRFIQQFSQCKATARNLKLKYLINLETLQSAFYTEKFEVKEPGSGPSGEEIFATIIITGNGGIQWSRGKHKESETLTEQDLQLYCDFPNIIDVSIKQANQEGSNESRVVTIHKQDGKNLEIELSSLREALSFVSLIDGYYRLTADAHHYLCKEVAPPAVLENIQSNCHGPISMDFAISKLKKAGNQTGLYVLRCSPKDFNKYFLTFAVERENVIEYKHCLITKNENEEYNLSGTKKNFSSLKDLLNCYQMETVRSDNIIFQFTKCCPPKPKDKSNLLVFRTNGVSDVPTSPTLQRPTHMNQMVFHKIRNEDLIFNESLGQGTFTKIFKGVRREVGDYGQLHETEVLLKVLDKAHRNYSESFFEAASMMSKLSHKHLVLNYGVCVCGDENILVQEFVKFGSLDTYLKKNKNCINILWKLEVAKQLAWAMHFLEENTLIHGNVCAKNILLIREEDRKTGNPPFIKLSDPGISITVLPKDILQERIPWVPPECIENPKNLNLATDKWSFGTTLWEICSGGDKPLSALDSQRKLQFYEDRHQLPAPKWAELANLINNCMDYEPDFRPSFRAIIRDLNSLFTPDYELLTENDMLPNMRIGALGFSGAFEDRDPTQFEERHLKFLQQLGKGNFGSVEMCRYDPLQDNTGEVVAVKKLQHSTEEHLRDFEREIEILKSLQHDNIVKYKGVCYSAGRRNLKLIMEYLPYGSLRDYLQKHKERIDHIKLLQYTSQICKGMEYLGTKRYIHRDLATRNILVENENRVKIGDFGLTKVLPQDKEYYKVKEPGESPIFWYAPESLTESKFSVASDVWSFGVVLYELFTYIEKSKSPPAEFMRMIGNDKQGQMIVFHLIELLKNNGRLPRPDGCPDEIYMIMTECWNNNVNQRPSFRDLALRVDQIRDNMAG
JAK2/JAK2 homdimeric complex, sequence (P32927 17-897 partner): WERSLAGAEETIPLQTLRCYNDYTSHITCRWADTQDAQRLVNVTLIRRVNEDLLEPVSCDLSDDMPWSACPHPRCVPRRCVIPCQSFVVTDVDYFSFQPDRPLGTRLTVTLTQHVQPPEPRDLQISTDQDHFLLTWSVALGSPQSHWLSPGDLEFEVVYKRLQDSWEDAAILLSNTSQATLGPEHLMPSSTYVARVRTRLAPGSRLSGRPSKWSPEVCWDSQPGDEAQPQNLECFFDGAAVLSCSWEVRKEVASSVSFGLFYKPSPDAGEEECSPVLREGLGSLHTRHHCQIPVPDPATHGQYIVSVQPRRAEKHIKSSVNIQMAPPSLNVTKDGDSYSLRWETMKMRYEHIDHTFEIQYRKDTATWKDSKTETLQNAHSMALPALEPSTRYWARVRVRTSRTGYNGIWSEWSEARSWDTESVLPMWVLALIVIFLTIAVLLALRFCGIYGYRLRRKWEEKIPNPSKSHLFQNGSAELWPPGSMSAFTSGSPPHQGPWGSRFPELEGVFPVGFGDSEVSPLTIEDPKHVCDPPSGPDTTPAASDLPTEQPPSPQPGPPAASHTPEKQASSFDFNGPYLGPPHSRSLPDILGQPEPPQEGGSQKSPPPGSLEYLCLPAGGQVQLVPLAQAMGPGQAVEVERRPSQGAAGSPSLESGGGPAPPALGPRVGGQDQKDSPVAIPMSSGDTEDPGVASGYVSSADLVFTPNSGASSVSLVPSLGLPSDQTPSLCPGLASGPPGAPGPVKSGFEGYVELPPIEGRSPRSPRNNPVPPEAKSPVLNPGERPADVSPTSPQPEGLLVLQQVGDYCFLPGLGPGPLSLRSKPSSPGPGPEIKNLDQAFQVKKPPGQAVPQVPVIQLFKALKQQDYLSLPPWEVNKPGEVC
Tyk2 kinase domain (DH1), sequence (P29597 897-1176): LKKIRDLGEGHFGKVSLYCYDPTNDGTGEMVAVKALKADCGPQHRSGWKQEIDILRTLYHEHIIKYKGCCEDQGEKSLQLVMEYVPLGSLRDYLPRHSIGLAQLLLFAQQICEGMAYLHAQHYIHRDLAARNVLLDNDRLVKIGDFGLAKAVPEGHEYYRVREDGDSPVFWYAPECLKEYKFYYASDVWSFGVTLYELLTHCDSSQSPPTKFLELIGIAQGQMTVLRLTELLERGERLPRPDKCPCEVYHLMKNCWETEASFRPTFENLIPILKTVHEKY
Tyk2/JAK2 (heterodimeric complex), sequence (P29597 whole entry, other chains not shown): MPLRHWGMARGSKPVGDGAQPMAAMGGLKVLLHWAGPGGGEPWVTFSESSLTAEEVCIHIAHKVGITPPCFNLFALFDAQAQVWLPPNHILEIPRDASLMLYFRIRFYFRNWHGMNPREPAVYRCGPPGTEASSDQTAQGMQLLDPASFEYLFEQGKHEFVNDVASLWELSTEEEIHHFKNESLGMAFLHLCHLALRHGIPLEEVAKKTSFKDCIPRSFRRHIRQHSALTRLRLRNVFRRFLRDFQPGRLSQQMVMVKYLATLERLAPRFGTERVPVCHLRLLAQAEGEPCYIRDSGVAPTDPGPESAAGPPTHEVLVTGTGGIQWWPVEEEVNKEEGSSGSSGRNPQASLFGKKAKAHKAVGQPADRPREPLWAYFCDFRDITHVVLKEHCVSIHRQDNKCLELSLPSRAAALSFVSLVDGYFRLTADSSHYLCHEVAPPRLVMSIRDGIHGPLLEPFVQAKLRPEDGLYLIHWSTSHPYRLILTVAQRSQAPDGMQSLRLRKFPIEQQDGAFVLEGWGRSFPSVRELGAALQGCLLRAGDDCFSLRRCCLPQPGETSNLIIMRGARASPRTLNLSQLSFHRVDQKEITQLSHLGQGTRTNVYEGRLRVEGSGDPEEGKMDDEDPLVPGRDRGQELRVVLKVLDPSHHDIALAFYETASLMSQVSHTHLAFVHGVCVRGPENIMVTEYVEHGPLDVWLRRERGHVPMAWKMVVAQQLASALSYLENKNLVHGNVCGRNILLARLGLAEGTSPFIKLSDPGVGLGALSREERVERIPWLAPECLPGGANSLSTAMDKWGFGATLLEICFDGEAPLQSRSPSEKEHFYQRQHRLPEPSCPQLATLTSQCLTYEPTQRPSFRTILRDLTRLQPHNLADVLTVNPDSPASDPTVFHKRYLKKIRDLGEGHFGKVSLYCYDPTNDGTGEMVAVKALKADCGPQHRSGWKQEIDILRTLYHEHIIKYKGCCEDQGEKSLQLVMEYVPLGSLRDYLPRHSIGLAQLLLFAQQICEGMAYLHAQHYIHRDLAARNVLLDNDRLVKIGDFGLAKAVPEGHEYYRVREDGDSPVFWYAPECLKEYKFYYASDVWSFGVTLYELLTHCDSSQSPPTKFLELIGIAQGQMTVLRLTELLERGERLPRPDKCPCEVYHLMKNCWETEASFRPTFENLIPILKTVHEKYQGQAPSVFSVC
human TYK2 (JH2domain-pseudokinase), sequence (P29597 556-888): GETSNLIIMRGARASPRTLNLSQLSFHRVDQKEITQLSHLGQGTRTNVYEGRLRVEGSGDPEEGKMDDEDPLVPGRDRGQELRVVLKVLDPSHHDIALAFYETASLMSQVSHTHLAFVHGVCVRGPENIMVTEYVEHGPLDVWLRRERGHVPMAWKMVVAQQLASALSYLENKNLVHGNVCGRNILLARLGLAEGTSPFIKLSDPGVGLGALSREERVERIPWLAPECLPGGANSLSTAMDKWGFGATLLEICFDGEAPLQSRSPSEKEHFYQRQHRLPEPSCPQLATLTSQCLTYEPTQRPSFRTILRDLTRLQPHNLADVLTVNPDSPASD

Regarding `CCOc1ccc(-n2cccc(Nc3cc(NC)n4ncc(C(=O)N[C@H]5C[C@H]5F)c4n3)c2=O)nn1` [I-117], the Kd in assay [1] is < 0.0002 µM. Also, the inhibition at 10 µM on Tyk2 kinase domain (DH1) (compound at 10 μM, ATP 10 μM) is < 50%; at JAK2 kinase domain (JH1) (compound at 10 μM, ATP 10 μM), < 50%. Also, the IC50 in assay [2] is < 0.1 µM; in assay [3] it was > 2.5 µM.
As to `CNc1cc(Nc2cccn(CCOC)c2=O)nc2c(C(=O)NC3CCC3)cnn12` [I-269], in assay [1], the Kd was < 0.0002 µM. Besides, the inhibition at 10 µM is < 50% at Tyk2 kinase domain (DH1) (compound at 10 μM, ATP 10 μM) and < 50% at JAK2 kinase domain (JH1) (compound at 10 μM, ATP 10 μM). For the same compound, the IC50 in assay [2] is < 0.1 µM; in assay [3], > 50 µM.
With `CNc1cc(Nc2cc(C)cnc2OC2CC2)nc2c(C(=O)NC3CC3)cnn12` [I-277], in assay [1], the Kd lay within 0.0002 to 0.001 µM. Further, the inhibition at 10 µM at Tyk2 kinase domain (DH1) (compound at 10 μM, ATP 10 μM) is < 50%; at JAK2 kinase domain (JH1) (compound at 10 μM, ATP 10 μM), < 50%. Also, the IC50 was 0.1 to 0.5 µM in assay [2] and > 50 µM in assay [3].
Consider `CNc1cc(Nc2cccn(-c3ocnc3C)c2=O)nc2c(C(=O)N[C@@H]3C[C@@H]3F)cnn12` [I-790], for which, in assay [1], the Kd is < 0.0002 µM. In addition, the inhibition at 10 µM on Tyk2 kinase domain (DH1) (compound at 10 μM, ATP 10 μM) was < 50%; at JAK2 kinase domain (JH1) (compound at 10 μM, ATP 10 μM), < 50%. The IC50 in assay [2] was < 0.1 µM; in assay [3] it was > 12.5 µM.
On to `CNc1cc(Nc2cccn(-c3nc(C)co3)c2=O)nc2c(C(=O)NC3CCC3)cnn12` [I-386], for which the dissociation constant (Kd) in assay [1] was < 0.0002 µM. The inhibition at 10 µM on Tyk2 kinase domain (DH1) (compound at 10 μM, ATP 10 μM) was < 50%; on JAK2 kinase domain (JH1) (compound at 10 μM, ATP 10 μM), < 50%. In addition, the IC50 in assay [2] was < 0.1 µM; in assay [3], > 50 µM.
For the compound `CNc1cc(Nc2cccc(N3CCCC3=O)n2)nc2c(C(=O)NC3CCC3)cnn12` [I-94], the Kd in assay [1] was < 0.0002 µM. Moreover, the inhibition at 10 µM is < 50% on Tyk2 kinase domain (DH1) (compound at 10 μM, ATP 10 μM) and < 50% on JAK2 kinase domain (JH1) (compound at 10 μM, ATP 10 μM). The IC50 was < 0.1 µM in assay [2] and > 50 µM in assay [3].
With `CNc1cc(Nc2cc(F)cnc2OCCOC)nc2c(C(=O)N[C@H]3C[C@H]3F)cnn12` [I-285], in assay [1], the Kd was < 0.0002 µM. The inhibition at 10 µM at Tyk2 kinase domain (DH1) (compound at 10 μM, ATP 10 μM) was < 50%; at JAK2 kinase domain (JH1) (compound at 10 μM, ATP 10 μM) it was < 50%. Moreover, the 50% inhibitory concentration (IC50) in assay [2] is < 0.1 µM; in assay [3] it was > 50 µM.
`CNc1cc(-c2cn(C(C)C)c3ncccc23)nc2c(C(=O)N[C@@H]3COC[C@@H]3O)cnn12` [I-842, N-((3R,4R)-4-hydroxytetrahydrofuran-3-yl)-5-(1-isopropyl-1H-pyrrolo[2,3-b]pyridin-3-yl)-7-(methylamino)pyrazolo[1,5-a]pyrimidine-3-carboxamide]: the Kd in assay [1] is < 0.0002 µM. Besides, the inhibition at 10 µM on Tyk2 kinase domain (DH1) (10 μM compound, 10 μM ATP) is < 50%; on JAK2 kinase domain (JH1) (10 μM compound, 10 μM ATP), < 50%. The IC50 in assay [2] is < 0.1 µM; in assay [3], > 50 µM.
As for `CNc1cc(Nc2cc(F)cc(F)c2F)nc2c(C(=O)NC3CC3)cnn12` [I-5], in assay [1], the Kd is < 0.0002 µM. Besides, the inhibition at 10 µM was < 50% at Tyk2 kinase domain (DH1) (compound at 10 μM, ATP 10 μM) and < 50% at JAK2 kinase domain (JH1) (compound at 10 μM, ATP 10 μM). Moreover, the IC50 is < 0.1 µM in assay [2] and > 50 µM in assay [3].
`CNc1cc(Nc2cc(Cl)cn([C@@H]3CCCOC3)c2=O)nc2c(C(=O)N[C@@H]3C[C@@H]3F)cnn12` [I-773]: the Kd in assay [1] was < 0.0002 µM. Also, the inhibition at 10 µM was < 50% on Tyk2 kinase domain (DH1) (compound at 10 μM, ATP 10 μM) and < 50% at JAK2 kinase domain (JH1) (compound at 10 μM, ATP 10 μM). Besides, the IC50 in assay [2] is < 0.1 µM; in assay [3], > 12.5 µM.
`CNc1cc(Nc2cc(Cl)cn(C3CCCOC3)c2=O)nc2c(C(=O)NCC(C)(C)CO)cnn12` (centres unmarked) [I-694]: the Kd in assay [1] was < 0.0002 µM. Also, the inhibition at 10 µM at Tyk2 kinase domain (DH1) (compound at 10 μM, ATP 10 μM) was < 50%; at JAK2 kinase domain (JH1) (compound at 10 μM, ATP 10 μM) it was < 50%. Further, the IC50 in assay [2] was < 0.1 µM; in assay [3] it was > 50 µM.
In the case of `CNc1cc(Nc2cc(Cl)cn(C3CCCN(C)C3)c2=O)nc2c(C(=O)NC3CC3)cnn12` (centres unmarked) [I-740], the Kd in assay [1] was < 0.0002 µM. In addition, the inhibition at 10 µM at Tyk2 kinase domain (DH1) (compound at 10 μM, ATP 10 μM) was < 50%; on JAK2 kinase domain (JH1) (compound at 10 μM, ATP 10 μM), < 50%. Besides, the IC50 is < 0.1 µM in assay [2] and > 2.5 µM in assay [3].
In turn, `CNc1cc(Nc2cccn(-c3ccn(C)n3)c2=O)nc2c(C(=O)NC3CC3)cnn12` [I-294] displayed a Kd in assay [1] of 0.0002 to 0.001 µM. The inhibition at 10 µM was < 50% at Tyk2 kinase domain (DH1) (compound at 10 μM, ATP 10 μM) and < 50% at JAK2 kinase domain (JH1) (compound at 10 μM, ATP 10 μM). The IC50 in assay [2] is < 0.1 µM; in assay [3], > 12.5 µM.

(Values after patent US10508120B2, “TYK2 inhibitors and uses thereof” (Nimbus Lakshmi, Inc., priority 2017, dated 2019).)
